Measured values published in patent US20130018061A1, “Method for Improving Exercise and Recovery From Exercise” (priority 2011, published 2013).

How the values were obtained:
[1] = 250 mg caffeine, 200 mg L-theanine, or both; cited from earlier work
[2] = Study 2; effects typically experienced with high amounts of caffeine
Procedure: In this first study, twenty-one subjects (20 male, 1 female), all healthy and between the ages of 20 and 35 years were given the pre-workout supplement in capsule form to be taken 30 to 45 minutes before exercise on an empty stomach in place of any regularly consumed pre-workout product prior to the next exercise session. Subjects were instructed to maintain normal diet and activity. Subjects were surveyed for ratings of perceived effects on energy levels and mental focus. Subjects were also advised to supply general comments regarding the supplement in terms of negative side effects, comparison to other products, overall satisfaction and effectiveness.

[3] = absorbed in the small intestine; cited from earlier work
[4] = 50 mg or 200 mg after cycling exercise, fourteen healthy male subjects; cited from earlier work

For Cn1c(=O)c2c(ncn2C)n(C)c1=O [caffeine, 1,3,7-trimethylxanthine], the “effect on alertness, anxiety and blood pressure” value [1] is given as “increased alertness, anxiety, and blood pressure”.

In the case of CCNC(=O)CC[C@H](N)C(=O)O [L-theanine, γ-N-ethylglutamine], the “effect on alertness, anxiety and blood pressure” value [1] is given as “only acted to counter the increase in blood pressure”, the “jitters and energy crash” value [2] is given as “prevented jitters and the energy crash” and the “time of peak plasma levels” value [3] is given as ≤ 30 min. For the same compound, the post-exercise mental regeneration [4] was “accelerated post-exercise mental regeneration”.
